Tested on: 518A2
Assay: Cytotoxicity against human 518A2 cells after 96 hrs by SRB assay
Assay type: functional, cell-based
Conditions: 518A2, 96 h

Compound	EC50 [µM]
COC(=O)[C@]12CC[C@@H]([C@@H](C)NC(C)=O)[C@@H]1[C@H]1CC[C@@H]3[C@@]4(C)CC[C@H](OC(C)=O)C(C)(C)[C@@H]4CC[C@@]3(C)[C@]1(C)CC2	27
C[C@@H](N)[C@@H]1CC[C@]2(C(=O)OCc3ccccc3)CC[C@]3(C)[C@H](CC[C@@H]4[C@@]5(C)CC[C@H](O)C(C)(C)[C@@H]5CC[C@]43C)[C@@H]12	7.5
COC(=O)[C@]12CC[C@@H](/C(C)=N\O)[C@@H]1[C@H]1CC[C@@H]3[C@@]4(C)CC[C@H](OC(C)=O)C(C)(C)[C@@H]4CC[C@@]3(C)[C@]1(C)CC2	9.7
CC(=O)[C@@H]1CC[C@]2(C(=O)OCc3ccccc3)CC[C@]3(C)[C@H](CC[C@@H]4[C@@]5(C)CCC(=O)C(C)(C)[C@@H]5CC[C@]43C)[C@@H]12	> 30
CC(=O)O[C@H]1CC[C@]2(C)[C@H]3CC[C@@H]4[C@H]5[C@H]([C@H](C)N)CC[C@]5(C(=O)OCc5ccccc5)CC[C@@]4(C)[C@]3(C)CC[C@H]2C1(C)C	2.5
CC(=O)O[C@H]1CC[C@]2(C)[C@H]3CC[C@@H]4[C@H]5[C@H](C(C)=O)CC[C@]5(C(=O)NCCN)CC[C@@]4(C)[C@]3(C)CC[C@H]2C1(C)C	3.2
CC(=O)[C@@H]1CC[C@]2(N)CC[C@]3(C)[C@H](CC[C@@H]4[C@@]5(C)CC[C@H](O)C(C)(C)[C@@H]5CC[C@]43C)[C@@H]12	> 30

Tested on: A2780
Assay: Cytotoxicity against human A2780 cells after 96 hrs by SRB assay
Assay type: functional, cell-based
Conditions: A2780, 96 h

Compound	EC50 [µM]
COC(=O)[C@]12CC[C@@H]([C@@H](C)NC(C)=O)[C@@H]1[C@H]1CC[C@@H]3[C@@]4(C)CC[C@H](OC(C)=O)C(C)(C)[C@@H]4CC[C@@]3(C)[C@]1(C)CC2	27.3
C[C@@H](N)[C@@H]1CC[C@]2(C(=O)OCc3ccccc3)CC[C@]3(C)[C@H](CC[C@@H]4[C@@]5(C)CC[C@H](O)C(C)(C)[C@@H]5CC[C@]43C)[C@@H]12	7.5
COC(=O)[C@]12CC[C@@H](/C(C)=N\O)[C@@H]1[C@H]1CC[C@@H]3[C@@]4(C)CC[C@H](OC(C)=O)C(C)(C)[C@@H]4CC[C@@]3(C)[C@]1(C)CC2	12.9
CC(=O)[C@@H]1CC[C@]2(C(=O)OCc3ccccc3)CC[C@]3(C)[C@H](CC[C@@H]4[C@@]5(C)CCC(=O)C(C)(C)[C@@H]5CC[C@]43C)[C@@H]12	> 30
CC(=O)O[C@H]1CC[C@]2(C)[C@H]3CC[C@@H]4[C@H]5[C@H]([C@H](C)N)CC[C@]5(C(=O)OCc5ccccc5)CC[C@@]4(C)[C@]3(C)CC[C@H]2C1(C)C	2.3
CC(=O)O[C@H]1CC[C@]2(C)[C@H]3CC[C@@H]4[C@H]5[C@H](C(C)=O)CC[C@]5(C(=O)NCCN)CC[C@@]4(C)[C@]3(C)CC[C@H]2C1(C)C	3.2
CC(=O)[C@@H]1CC[C@]2(N)CC[C@]3(C)[C@H](CC[C@@H]4[C@@]5(C)CC[C@H](O)C(C)(C)[C@@H]5CC[C@]43C)[C@@H]12	> 30

Tested on: MCF7
Assay: Cytotoxicity against human MCF7 cells after 96 hrs by SRB assay
Assay type: functional, cell-based
Conditions: MCF7, 96 h

Compound	EC50 [µM]
COC(=O)[C@]12CC[C@@H]([C@@H](C)NC(C)=O)[C@@H]1[C@H]1CC[C@@H]3[C@@]4(C)CC[C@H](OC(C)=O)C(C)(C)[C@@H]4CC[C@@]3(C)[C@]1(C)CC2	21.4
C[C@@H](N)[C@@H]1CC[C@]2(C(=O)OCc3ccccc3)CC[C@]3(C)[C@H](CC[C@@H]4[C@@]5(C)CC[C@H](O)C(C)(C)[C@@H]5CC[C@]43C)[C@@H]12	5.6
COC(=O)[C@]12CC[C@@H](/C(C)=N\O)[C@@H]1[C@H]1CC[C@@H]3[C@@]4(C)CC[C@H](OC(C)=O)C(C)(C)[C@@H]4CC[C@@]3(C)[C@]1(C)CC2	12.1
CC(=O)[C@@H]1CC[C@]2(C(=O)OCc3ccccc3)CC[C@]3(C)[C@H](CC[C@@H]4[C@@]5(C)CCC(=O)C(C)(C)[C@@H]5CC[C@]43C)[C@@H]12	> 30
CC(=O)O[C@H]1CC[C@]2(C)[C@H]3CC[C@@H]4[C@H]5[C@H]([C@H](C)N)CC[C@]5(C(=O)OCc5ccccc5)CC[C@@]4(C)[C@]3(C)CC[C@H]2C1(C)C	1.3
CC(=O)O[C@H]1CC[C@]2(C)[C@H]3CC[C@@H]4[C@H]5[C@H](C(C)=O)CC[C@]5(C(=O)NCCN)CC[C@@]4(C)[C@]3(C)CC[C@H]2C1(C)C	3.1
CC(=O)[C@@H]1CC[C@]2(N)CC[C@]3(C)[C@H](CC[C@@H]4[C@@]5(C)CC[C@H](O)C(C)(C)[C@@H]5CC[C@]43C)[C@@H]12	> 30

Tested on: A549
Assay: Cytotoxicity against human A549 cells after 96 hrs by SRB assay
Assay type: functional, cell-based
Conditions: A549, 96 h

Compound	EC50 [µM]
COC(=O)[C@]12CC[C@@H]([C@@H](C)NC(C)=O)[C@@H]1[C@H]1CC[C@@H]3[C@@]4(C)CC[C@H](OC(C)=O)C(C)(C)[C@@H]4CC[C@@]3(C)[C@]1(C)CC2	22.9
C[C@@H](N)[C@@H]1CC[C@]2(C(=O)OCc3ccccc3)CC[C@]3(C)[C@H](CC[C@@H]4[C@@]5(C)CC[C@H](O)C(C)(C)[C@@H]5CC[C@]43C)[C@@H]12	10.1
COC(=O)[C@]12CC[C@@H](/C(C)=N\O)[C@@H]1[C@H]1CC[C@@H]3[C@@]4(C)CC[C@H](OC(C)=O)C(C)(C)[C@@H]4CC[C@@]3(C)[C@]1(C)CC2	8.8
CC(=O)[C@@H]1CC[C@]2(C(=O)OCc3ccccc3)CC[C@]3(C)[C@H](CC[C@@H]4[C@@]5(C)CCC(=O)C(C)(C)[C@@H]5CC[C@]43C)[C@@H]12	> 30
CC(=O)O[C@H]1CC[C@]2(C)[C@H]3CC[C@@H]4[C@H]5[C@H]([C@H](C)N)CC[C@]5(C(=O)OCc5ccccc5)CC[C@@]4(C)[C@]3(C)CC[C@H]2C1(C)C	3.3
CC(=O)O[C@H]1CC[C@]2(C)[C@H]3CC[C@@H]4[C@H]5[C@H](C(C)=O)CC[C@]5(C(=O)NCCN)CC[C@@]4(C)[C@]3(C)CC[C@H]2C1(C)C	3.2
CC(=O)[C@@H]1CC[C@]2(N)CC[C@]3(C)[C@H](CC[C@@H]4[C@@]5(C)CC[C@H](O)C(C)(C)[C@@H]5CC[C@]43C)[C@@H]12	> 30

Tested on: NIH3T3
Assay: Cytotoxicity against mouse NIH/3T3 cells after 96 hrs by SRB assay
Assay type: cell-based
Conditions: NIH3T3, 96 h

Compound	EC50 [µM]
COC(=O)[C@]12CC[C@@H]([C@@H](C)NC(C)=O)[C@@H]1[C@H]1CC[C@@H]3[C@@]4(C)CC[C@H](OC(C)=O)C(C)(C)[C@@H]4CC[C@@]3(C)[C@]1(C)CC2	16
C[C@@H](N)[C@@H]1CC[C@]2(C(=O)OCc3ccccc3)CC[C@]3(C)[C@H](CC[C@@H]4[C@@]5(C)CC[C@H](O)C(C)(C)[C@@H]5CC[C@]43C)[C@@H]12	7.3
COC(=O)[C@]12CC[C@@H](/C(C)=N\O)[C@@H]1[C@H]1CC[C@@H]3[C@@]4(C)CC[C@H](OC(C)=O)C(C)(C)[C@@H]4CC[C@@]3(C)[C@]1(C)CC2	12.3
CC(=O)[C@@H]1CC[C@]2(C(=O)OCc3ccccc3)CC[C@]3(C)[C@H](CC[C@@H]4[C@@]5(C)CCC(=O)C(C)(C)[C@@H]5CC[C@]43C)[C@@H]12	> 30
CC(=O)O[C@H]1CC[C@]2(C)[C@H]3CC[C@@H]4[C@H]5[C@H]([C@H](C)N)CC[C@]5(C(=O)OCc5ccccc5)CC[C@@]4(C)[C@]3(C)CC[C@H]2C1(C)C	2
CC(=O)O[C@H]1CC[C@]2(C)[C@H]3CC[C@@H]4[C@H]5[C@H](C(C)=O)CC[C@]5(C(=O)NCCN)CC[C@@]4(C)[C@]3(C)CC[C@H]2C1(C)C	2.1
CC(=O)[C@@H]1CC[C@]2(N)CC[C@]3(C)[C@H](CC[C@@H]4[C@@]5(C)CC[C@H](O)C(C)(C)[C@@H]5CC[C@]43C)[C@@H]12	27.5

Tested on: HT-29
Assay: cells
Conditions: Homo sapiens, HT-29, 96 h
Description: Cytotoxicity against human HT-29 cells after 96 hrs by SRB assay

Compound	EC50 [µM]
COC(=O)[C@]12CC[C@@H]([C@@H](C)NC(C)=O)[C@@H]1[C@H]1CC[C@@H]3[C@@]4(C)CC[C@H](OC(C)=O)C(C)(C)[C@@H]4CC[C@@]3(C)[C@]1(C)CC2	27.6
C[C@@H](N)[C@@H]1CC[C@]2(C(=O)OCc3ccccc3)CC[C@]3(C)[C@H](CC[C@@H]4[C@@]5(C)CC[C@H](O)C(C)(C)[C@@H]5CC[C@]43C)[C@@H]12	5
COC(=O)[C@]12CC[C@@H](/C(C)=N\O)[C@@H]1[C@H]1CC[C@@H]3[C@@]4(C)CC[C@H](OC(C)=O)C(C)(C)[C@@H]4CC[C@@]3(C)[C@]1(C)CC2	13
CC(=O)[C@@H]1CC[C@]2(C(=O)OCc3ccccc3)CC[C@]3(C)[C@H](CC[C@@H]4[C@@]5(C)CCC(=O)C(C)(C)[C@@H]5CC[C@]43C)[C@@H]12	> 30
CC(=O)O[C@H]1CC[C@]2(C)[C@H]3CC[C@@H]4[C@H]5[C@H]([C@H](C)N)CC[C@]5(C(=O)OCc5ccccc5)CC[C@@]4(C)[C@]3(C)CC[C@H]2C1(C)C	1.3
CC(=O)O[C@H]1CC[C@]2(C)[C@H]3CC[C@@H]4[C@H]5[C@H](C(C)=O)CC[C@]5(C(=O)NCCN)CC[C@@]4(C)[C@]3(C)CC[C@H]2C1(C)C	3.3
CC(=O)[C@@H]1CC[C@]2(N)CC[C@]3(C)[C@H](CC[C@@H]4[C@@]5(C)CC[C@H](O)C(C)(C)[C@@H]5CC[C@]43C)[C@@H]12	18.7
